In patent US11716944B1, “Method for improving one-time seedling rate of microspore embryoids of brassica campestris SSP. chinensis makino” (Anhui Agricultural University, priority 2021, dated 2023):

Legend:
[1] = system: Brassica campestris ssp. Chinensis Makino; assay: Effects of different concentrations of 6-BA sprayed onto flower buds on the embryogenesis rate; type: in vivo; conditions: for embryogenesis rate increased by: compared with no 6-BA
Protocol: In this example, a method for improving a one-time seedling rate of microspore embryoids of Brassica campestris ssp. Chinensis Makino included the steps of: • (1) pretreatment of flower bud • a concentration of 100 mg/L of 6-BA was sprayed onto a flower bud of a plant of Brassica campestris ssp. Chinensis Makino at a full-bloom stage after squaring; on the second day after the spraying of 6-BA, an inflorescence, which was specifically a main inflorescence or a healthy inflorescence of a primary branch of a plant without insect pests and cracked buds, was selected, placed in a self-sealing bag and sprayed with clean water, and then stored in a refrigerator at 4° C. for 1 day for later use; • (2) isolation of microspores • a flower bud with a petal length/anther length between 0.5-1 was selected, firstly sterilized with 70% alcohol for 30 s, then sterilized with 0.1% HgCl2 under shaking for 6 min, and then rinsed with sterilized water for 2 times, with each time for 5 min; then, the flower bud was crushed in a B5 medium with a glass rod to release microspores, and the microspores were filtered by a 300-mesh steel-wire mesh screen and a cell mesh screen successively; subsequently, a filtrate was collected into a centrifugal tube and centrifuged under the condition of 1,000 r/min for 3 min; and after the centrifuging, a pellet was resuspended with a B5 medium, and the resuspended solution was centrifuged again under the condition of 1,000 r/min for 3 min to obtain a pellet as the purified microspores desired for the objective; • (3) culture of microspores • the purified microspores were diluted with a NLN medium, and a cell density was adjusted to about 1.5 × 10^5 /mL^-1 (at this time, the medium was pale yellow); subsequently, the diluted purified microspores were subpackaged into culture dishes, and added with phytic acid PA at a concentration of 0.15%; and finally, the microspores were subjected to heat shock treatment at 33° C. for 24 h, then transferred to culture in the dark at 25° C., and placed onto a shaker for shaking culture after embryoids visible to naked eyes appeared; and • (4) germination and seedling of embryoids • the cultured embryoids in a cotyledon stage with a length of 2.8 mm were transferred onto a MS medium for differentiation culture, wherein culture conditions were 4° C., 14 h of illumination by blue-red compound light/day, and 14 days of culture; and then, the culture was continued under a condition of 25° C. and 14 h of illumination by blue-red compound light/day until seedling; wherein the ratio of blue light to red light in the blue-red compound light was 1:1. This example was used for verifying the effects of different concentrations of 6-BA on the embryogenesis rate of Brassica campestris ssp. Chinensis Makino: Method: in the pretreatment process of the flower buds, after squaring of Brassica campestris ssp. Chinensis Makino, at the full flowering stage, 6-BA solutions with concentrations of 0, 50, 100, 150 and 200 mg/L were prepared and sprayed onto the flower buds respectively, so as to study the effects of different concentrations of 6-BA on the embryogenesis rate of Brassica campestris ssp. Chinensis Makino (other steps were the same, and were conducted with reference to Example 3).

[2] = system: purified microspores of Brassica campestris ssp. Chinensis Makino; assay: Effects of different concentrations of phytic acid PA added in microspore culture on the embryogenesis rate; type: cell-based
Protocol: In this example, a method for improving a one-time seedling rate of microspore embryoids of Brassica campestris ssp. Chinensis Makino included the steps of: • (1) pretreatment of flower bud • a concentration of 100 mg/L of 6-BA was sprayed onto a flower bud of a plant of Brassica campestris ssp. Chinensis Makino at a full-bloom stage after squaring; on the second day after the spraying of 6-BA, an inflorescence, which was specifically a main inflorescence or a healthy inflorescence of a primary branch of a plant without insect pests and cracked buds, was selected, placed in a self-sealing bag and sprayed with clean water, and then stored in a refrigerator at 4° C. for 1 day for later use; • (2) isolation of microspores • a flower bud with a petal length/anther length between 0.5-1 was selected, firstly sterilized with 70% alcohol for 30 s, then sterilized with 0.1% HgCl2 under shaking for 6 min, and then rinsed with sterilized water for 2 times, with each time for 5 min; then, the flower bud was crushed in a B5 medium with a glass rod to release microspores, and the microspores were filtered by a 300-mesh steel-wire mesh screen and a cell mesh screen successively; subsequently, a filtrate was collected into a centrifugal tube and centrifuged under the condition of 1,000 r/min for 3 min; and after the centrifuging, a pellet was resuspended with a B5 medium, and the resuspended solution was centrifuged again under the condition of 1,000 r/min for 3 min to obtain a pellet as the purified microspores desired for the objective; • (3) culture of microspores • the purified microspores were diluted with a NLN medium, and a cell density was adjusted to about 1.5 × 10^5 /mL^-1 (at this time, the medium was pale yellow); subsequently, the diluted purified microspores were subpackaged into culture dishes, and added with phytic acid PA at a concentration of 0.15%; and finally, the microspores were subjected to heat shock treatment at 33° C. for 24 h, then transferred to culture in the dark at 25° C., and placed onto a shaker for shaking culture after embryoids visible to naked eyes appeared; and • (4) germination and seedling of embryoids • the cultured embryoids in a cotyledon stage with a length of 2.8 mm were transferred onto a MS medium for differentiation culture, wherein culture conditions were 4° C., 14 h of illumination by blue-red compound light/day, and 14 days of culture; and then, the culture was continued under a condition of 25° C. and 14 h of illumination by blue-red compound light/day until seedling; wherein the ratio of blue light to red light in the blue-red compound light was 1:1. This example was used for verifying the effects of different concentrations of phytic acid PA on the embryogenesis rate of Brassica campestris ssp. Chinensis Makino: Method: in the process of microspore culture, the purified microspores subjected to density dilution were subpackaged into culture dishes, and added with phytic acid PA at concentrations of 0, 0.01%, 0.1%, 0.15%, 0.5% and 1% respectively, so as to study the effects of different concentrations of phytic acid PA on the embryogenesis rate of Brassica campestris ssp. Chinensis Makino (other steps were the same, and conducted with reference to Example 3).

Structure (SMILES)	Average embryogenesis rate ([1]; 6-BA 50 mg/L sprayed onto flower buds) [embryo/bud]	embryogenesis rate increased by ([1]; 6-BA 50 mg/L) [%]	Average embryogenesis rate ([1]; 6-BA 100 mg/L sprayed onto flower buds) [embryo/bud]	embryogenesis rate increased by ([1]; 6-BA 100 mg/L) [%]	Average embryogenesis rate ([1]; 6-BA 150 mg/L sprayed onto flower buds) [embryo/bud]	embryogenesis rate increased by ([1]; 6-BA 150 mg/L) [%]	Average embryogenesis rate ([1]; 6-BA 200 mg/L sprayed onto flower buds) [embryo/bud]	embryogenesis rate decreased by ([1]; 6-BA 200 mg/L, compared with that without application of the 6-BA solution) [%]	Average embryogenesis rate ([2]; PA 0.01% in medium) [embryo/bud]	embryogenesis rate increased by ([2]; PA 0.01%, compared with the medium without addition of PA) [%]	Average embryogenesis rate ([2]; PA 0.1% in medium) [embryo/bud]	embryogenesis rate increased by ([2]; PA 0.1%, compared with the medium without addition of PA) [%]	Average embryogenesis rate ([2]; PA 0.15% in medium) [embryo/bud]	embryogenesis rate increased by ([2]; PA 0.15%, compared with the medium without addition of PA) [%]	Average embryogenesis rate ([2]; PA 0.5% in medium) [embryo/bud]	embryogenesis rate increased by ([2]; PA 0.5%, compared with the medium without addition of PA) [%]	Average embryogenesis rate ([2]; PA 1% in medium) [embryo/bud]	embryogenesis rate decreased by ([2]; PA 1%, compared with the medium without addition of PA) [%]
c1ccc(CNc2ncnc3[nH]cnc23)cc1 [6-BA]	0.92	38.46	1.56	100	1.08	17.95	0.74	5.13	–	–	–	–	–	–	–	–	–	–
O=P(O)(O)O[C@H]1[C@H](OP(=O)(O)O)[C@@H](OP(=O)(O)O)[C@H](OP(=O)(O)O)[C@@H](OP(=O)(O)O)[C@H]1OP(=O)(O)O [PA, Phytic acid]	–	–	–	–	–	–	–	–	0.774	21	1.495	134	1.137	78	0.789	23	0.487	24
